Reference: patent US20170119020A1, “METHOD OF FEEDING AN ANIMAL” (CARGILL, INCORPORATED, priority 2014, published 2017)

Experiments:
sows (PIC) = experiment: Sow performance (Example 10); format: in vivo, pig; conditions: for Culled sows, n: reproductive failure: 13 sows; for Wean-to-remate interval / Weaning-to-estrus interval: Subsequent performance; for Farrowing rate (%), subsequent performance: next cycle
Description: The trial was conducted at a farm in Poland. In general the housing and management conditions on the chosen workplace were considered representative for the geographical region. The breeding, gestation, and farrowing facilities of the farm were fully enclosed buildings with rooms that were ventilated and heated to maintain a minimum comfort zone temperature for the sows. Testing was performed on sows (primiparous and multiparous) of the same type of crossing (PIC). The trial comprised 52 sows in a system of continuous farrowing. Each group was consist of 13 animals. The trial ran from day 1 of pregnancy to remating in the next cycle. There were two dietary compositions: LP 0-90 d, LK-90 d of gestation-weaning. Feed fed throughout the study was manufactured in the feed mill of the farm. The feed produced was complete feeds according to the standard feeding management procedures on the participating farm. Feed consistency was mash. […] Each group was fed with complete diets for pregnant sows (0-90 d) and for lactation sows (90 d of gestation-weaning) with different inclusion of vitamin E and tested product (see TABLE 43A) and lactation diets (see TABLE 43B) The performance following criteria were monitored during the trial: (i) Sows response criteria (actual parity, farrowing rate, culled sows—number and reasons, wean-to-mating interval, farrowing rate in the next cycle); (ii) litter response criteria (number of piglets, total, alive, stillborn, mummies; weight of piglets and litters; survival). The following biochemical (blood) criteria were monitored during the trial for the sows (mating, farrowing and weaning), piglets 21st day: (i) glutathione peroxidase (GPx) activity; (ii) superoxide dismutase (SOD) activity; (iii) total antioxidant status (TAS); (iv) vitamin E content; (v) vitamin A content.

[1] = system: Cobb500 fast-feathering male broilers; experiment: Grow out of offspring, performance till slaughter age (Example 3); format: in vivo, chicken
[2] = Group 2: vitamin E 50/75 mg/kg diet
[3] = Group 3: vitamin E 100/150 mg/kg diet

In the case of `Cc1c(C)c2c(c(C)c1O)CCC(C)(CCCC(C)CCCC(C)CCCC(C)C)O2` (racemic) [Vitamin E, DL-α-tocopherol], the “Farrowing rate (%)” value (sows (PIC); [2]) is reported as 84.62%, the “Culled sows, n: reproductive failure” value (sows (PIC); [2]) is reported as 2 and the “Farrowing rate (%)” value (sows (PIC); [3]) is reported as 84.62%. The “Culled sows, n: reproductive failure” value (sows (PIC); [3]) was 2, the Wean-to-remate interval (sows (PIC); [2]) was 9.89 days and the Weaning-to-estrus interval (sows (PIC); [2]) was 5.09 days. The Wean-to-remate interval (sows (PIC); [3]) was 7.70 days, the Weaning-to-estrus interval (sows (PIC); [3]) was 5.64 days and the “Farrowing rate (%), subsequent performance” value (sows (PIC); [2]) was 80.00%. The “Farrowing rate (%), subsequent performance” value (sows (PIC); [3]) was 90.91%, the “start weight of the chickens” value ([1]; after placement in cages, day 0) was 40.9 g and the “F:G corrected for BW” value ([1]; corrected to 2,181 gram body weight at 35 days of age) was 1.627. For the same compound, the “ADFI 0-3 d” value ([1]; offspring) was 10.1 g, the “ADFI 0-14 d” value ([1]; offspring) was 37.1 g and the “ADFI 0-28 d” value ([1]; offspring) was 82.1 g. The “ADFI 0-35 d” value ([1]; offspring) was 101.7 g, the “ADFI 3-14 d” value ([1]; offspring) was 44.5 g and the “ADFI 14-35” value ([1]; offspring) was 144.8 g. For the same compound, the “ADFI 14-28 d” value ([1]; offspring) was 127.0 g, the “ADFI 28-35 d” value ([1]; offspring) was 180.3 g and the “ADG 0-3 d” value ([1]; offspring) was 9.5 g. For the same compound, the “ADG 0-14 d” value ([1]; offspring) was 29.3 g, the “ADG 0-28 d” value ([1]; offspring) was 54.4 g and the “ADG 0-35 d” value ([1]; offspring) was 62.2 g. For the same compound, the “ADG 3-14 d” value ([1]; offspring) was 34.7 g, the “ADG 14-35” value ([1]; offspring) was 84.2 g and the “ADG 14-28 d” value ([1]; offspring) was 79.6 g. For the same compound, the “ADG 28-35 d” value ([1]; offspring) was 93.6 g, the “BW 0 d” value ([1]; offspring) was 40.9 g and the “BW 3 d” value ([1]; offspring) was 69.4 g. The “BW 14 d” value ([1]; offspring) was 451 g, the “BW 35 d” value ([1]; offspring) was 2219 g and the “F:G 0-14 d” value ([1]; offspring) was 1.268. The “F:G 0-28 d” value ([1]; offspring) was 1.509, the “F:G 0-35 d” value ([1]; offspring) was 1.635 and the “F:G 3-14 d” value ([1]; offspring) was 1.283. The “F:G 14-28 d” value ([1]; offspring) was 1.598, the “F:G 14-35 d” value ([1]; offspring) was 1.720 and the “F:G 28-35 d” value ([1]; offspring) was 1.929. For the same compound, the EPI excl ([1]; offspring, 35 d) was 388, the “EPI, excl mortality” value ([1]; offspring, 35 d) was 369 and the Mortality ([1]; offspring, breeder diet 80 ppm vitamin E or 40 ppm vitamin E+40 ppm PROVIOX 50) was 4.6%. The “F:G 0-3 d” value ([1]; offspring, kg feed intake:kg gain) was 1.088.
